Assay results taken from ChEMBL document CHEMBL3046003, “Synthesis and antifungal activities of novel 5-amino-6-arylamino-1H-pyrazolo[3,4-d]pyrimidin-4(5H)-one derivatives” (2008).

Key:
Assay type in all cases: functional
Settings in all cases: read-out: GI
Sclerotinia sclerotiorum [1] = test: Antifungal activity against Sclerotinia sclerotiorum assessed as growth inhibition at 50 mg/L
Botrytis cinerea [2] = test: Antifungal activity against Botryotinia fuckeliana assessed as growth inhibition at 10 mg/L
Botrytis cinerea [3] = test: Antifungal activity against Botryotinia fuckeliana assessed as growth inhibition at 50 mg/L
Sclerotinia sclerotiorum [4] = test: Antifungal activity against Sclerotinia sclerotiorum assessed as growth inhibition at 10 mg/L
Fusarium graminearum = test: Antifungal activity against Fusarium graminearum assessed as growth inhibition at 50 mg/L
Pyricularia oryzae = test: Antifungal activity against Magnaporthe oryzae assessed as growth inhibition at 50 mg/L

SMILES | inhibition of growth at 50 µg/mL (Sclerotinia sclerotiorum [1]) [%] | inhibition of growth at 10 µg/mL (Botrytis cinerea [2]) [%] | inhibition of growth at 50 µg/mL (Botrytis cinerea [3]) [%] | inhibition of growth at 10 µg/mL (Sclerotinia sclerotiorum [4]) [%] | inhibition of growth at 50 µg/mL (Fusarium graminearum) [%] | inhibition of growth at 50 µg/mL (Pyricularia oryzae) [%]
CSc1nn(-c2ccccc2)c2nc3n(-c4cccc(Cl)c4)cnn3c(=O)c12 | 100 | 71 | 99 | 82 | 74 | 57
CSc1nn(-c2ccccc2)c2nc3n(-c4cccc(C)c4)cnn3c(=O)c12 | 98 | 74 | 97 | 73 | 50 | 70
CSc1nn(-c2ccccc2)c2nc(Nc3ccc(F)cc3)n(N)c(=O)c12 | 94 | 9 | 45 | 72 | 20 | 43
CSc1nn(-c2ccccc2)c2nc(Nc3ccccc3F)n(N)c(=O)c12 | 97 | 69 | 93 | 73 | 51 | 62
CSc1nn(-c2ccccc2)c2nc(Nc3cccc(F)c3)n(N)c(=O)c12 | 96 | 56 | 87 | 75 | 43 | 43
Nn1c(Nc2ccc(F)cc2)nc2c(c(SCc3ccccc3)nn2-c2ccccc2)c1=O | 83 | 12 | 55 | 52 | 34 | 29
Nn1c(Nc2ccccc2F)nc2c(c(SCc3ccccc3)nn2-c2ccccc2)c1=O | 71 | 18 | 64 | 33 | 40 | 14
Nn1c(Nc2cccc(F)c2)nc2c(c(SCc3ccccc3)nn2-c2ccccc2)c1=O | 82 | 20 | 69 | 40 | 46 | 14
CSc1nn(-c2ccccc2)c2nc(Nc3ccccc3)n(N)c(=O)c12 | 84 | 3 | 13 | 51 | 14 | 36
Nn1c(Nc2ccccc2)nc2c(c(SCc3ccccc3)nn2-c2ccccc2)c1=O | 72 | 12 | 60 | 31 | 29 | 50
CSc1nn(-c2ccccc2)c2nc(Nc3cccc(Cl)c3)n(N)c(=O)c12 | 98 | 73 | 99 | 76 | 57 | 96
CSc1nn(-c2ccccc2)c2nc(Nc3cccc(C)c3)n(N)c(=O)c12 | 86 | 36 | 71 | 52 | 46 | 14
CSc1nn(-c2ccccc2)c2nc3n(-c4ccc(F)cc4)cnn3c(=O)c12 | 93 | 45 | 71 | 70 | 49 | 9
CSc1nn(-c2ccccc2)c2nc3n(-c4ccccc4F)cnn3c(=O)c12 | 50 | 31 | 60 | 19 | 26 | 5
CSc1nn(-c2ccccc2)c2nc3n(-c4cccc(F)c4)cnn3c(=O)c12 | 100 | 70 | 91 | 83 | 74 | 29
O=c1c2c(SCc3ccccc3)nn(-c3ccccc3)c2nc2n(-c3ccc(F)cc3)cnn12 | 75 | 30 | 67 | 32 | 37 | 43
O=c1c2c(SCc3ccccc3)nn(-c3ccccc3)c2nc2n(-c3ccccc3F)cnn12 | 96 | 27 | 60 | 75 | 37 | 14
O=c1c2c(SCc3ccccc3)nn(-c3ccccc3)c2nc2n(-c3cccc(F)c3)cnn12 | 29 | 5 | 29 | 5 | 34 | 0
CSc1nn(-c2ccccc2)c2nc3n(-c4ccccc4)cnn3c(=O)c12 | 100 | 70 | 99 | 83 | 66 | 80
O=c1c2c(SCc3ccccc3)nn(-c3ccccc3)c2nc2n(-c3ccccc3)cnn12 | 93 | 49 | 73 | 67 | 60 | 29
c1ccc2[nH]c(-c3cscn3)nc2c1 [THIABENDAZOLE] | 100 |  | 100 |  | 100 | 87
